Data taken from patent US7811760B2, “Vector and method for detecting the change in transcription amount” (priority 2006, dated 2010).

Molecular target: T1, aryl hydrocarbon receptor (Rattus norvegicus, UniProt P41738, Q794H)
T1 construct: The SD-line rat AhR gene-coding region was amplified from the reverse-transcribed sample by means of PCR; V5-His (C-terminal tag of vector pcDNA4/V5-His B); expressed in transfected cells; host or cells: mouse neuroblastoma Neuro2a, transient transfection with LIPOFECTAMINE 2000
T1 sequence (P41738 10-853 Q794H): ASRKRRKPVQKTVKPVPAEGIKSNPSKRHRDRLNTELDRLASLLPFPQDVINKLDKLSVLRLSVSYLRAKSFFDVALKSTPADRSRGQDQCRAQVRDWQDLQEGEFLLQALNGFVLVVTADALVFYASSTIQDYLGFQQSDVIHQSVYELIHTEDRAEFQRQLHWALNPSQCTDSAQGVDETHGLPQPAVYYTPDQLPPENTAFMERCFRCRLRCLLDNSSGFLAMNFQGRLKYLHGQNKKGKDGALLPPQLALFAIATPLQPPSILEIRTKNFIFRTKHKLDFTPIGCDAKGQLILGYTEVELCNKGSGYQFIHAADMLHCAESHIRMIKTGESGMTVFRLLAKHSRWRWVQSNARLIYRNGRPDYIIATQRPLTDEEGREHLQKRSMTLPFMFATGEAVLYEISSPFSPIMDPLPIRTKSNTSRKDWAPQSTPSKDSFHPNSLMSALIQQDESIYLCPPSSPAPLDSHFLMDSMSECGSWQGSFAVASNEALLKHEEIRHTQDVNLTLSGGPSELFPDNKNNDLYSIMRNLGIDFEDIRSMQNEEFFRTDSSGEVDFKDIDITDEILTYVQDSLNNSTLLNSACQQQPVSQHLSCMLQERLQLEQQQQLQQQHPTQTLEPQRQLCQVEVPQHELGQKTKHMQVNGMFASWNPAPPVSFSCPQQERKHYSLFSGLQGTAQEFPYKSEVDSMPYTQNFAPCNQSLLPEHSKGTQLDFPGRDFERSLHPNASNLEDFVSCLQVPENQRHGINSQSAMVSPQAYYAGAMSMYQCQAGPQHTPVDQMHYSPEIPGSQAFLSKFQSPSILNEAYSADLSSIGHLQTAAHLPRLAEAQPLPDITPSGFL
Test: Reporter gene assay in Neuro2a with pTHE60/Luc and pTHE60×3/Luc (SEQ ID No: 4)
Type: cell-based, SD-line rat
Conditions: 1 nM and 10 nM TCDD; pTHE60/Luc versus pTHE60×3/Luc
Protocol: In Example 9, the region of SEQ ID No: 4 was used as the TCDD-responsive region in the TH transcriptional regulatory region. The region of SEQ ID No: 4 was amplified by PCR using the region of SEQ ID No: 3 as a template and using the following primers: Forward primer: 5′-[…]-3′ (SEQ ID No: 29); and Reverse primer: 5′-[…]-3′ (SEQ ID No: 30). Pyrobest DNA polymerase was used in the PCR. Recognition sequences for restriction enzymes KpnI (for forward primer) and NheI (for reverse primer) were added to the terminal of the respective primers, for the purpose of facilitating incorporation of the PCR amplified fragment into the vector. The terminal of the region of SEQ ID No: 4 amplified by PCR was phosphorylated with 5′-polynucleotide kinase (Takara Bio Inc.), and then, the regions of SEQ ID No: 4 were ligated in tandem with each other by using a ligation kit. The ligated DNA fragments were digested with restriction enzymes KpnI and NheI, and subjected to agarose gel electrophoresis. DNA fragment consisting of a single copy of the region of SEQ ID No: 4 and DNA fragment consisting of three copies of the regions of SEQ ID No: 4 linked in tandem were excised from the gel based on their molecular weight, and purified with a QIAQUICK Gel Extraction Kit. […]

Clc1cc2c(cc1Cl)Oc1cc(Cl)c(Cl)cc1O2 [TCDD, 2,3,7,8-tetrachlorodibenzo-p-dioxine]
activity of the test substance on transcriptional regulation, by number of regions of SEQ ID No: 4: increased according to the increase in the number of the regions incorporated into the vector
